Results as given in ChEMBL document CHEMBL4330071 (Eur J Med Chem, 2019).

Legend:
[1] = biological target: T1, Receptor-type tyrosine-protein kinase FLT3 (Homo sapiens, UniProt P36888); assay: Inhibition of human FLT3 using EAIYAAPFAKKK as substrate preincubated for 20 mins followed by [gamma-33P]-ATP addition and measured after 120 mins by Hotspot assay
T1 sequence (P36888 whole entry): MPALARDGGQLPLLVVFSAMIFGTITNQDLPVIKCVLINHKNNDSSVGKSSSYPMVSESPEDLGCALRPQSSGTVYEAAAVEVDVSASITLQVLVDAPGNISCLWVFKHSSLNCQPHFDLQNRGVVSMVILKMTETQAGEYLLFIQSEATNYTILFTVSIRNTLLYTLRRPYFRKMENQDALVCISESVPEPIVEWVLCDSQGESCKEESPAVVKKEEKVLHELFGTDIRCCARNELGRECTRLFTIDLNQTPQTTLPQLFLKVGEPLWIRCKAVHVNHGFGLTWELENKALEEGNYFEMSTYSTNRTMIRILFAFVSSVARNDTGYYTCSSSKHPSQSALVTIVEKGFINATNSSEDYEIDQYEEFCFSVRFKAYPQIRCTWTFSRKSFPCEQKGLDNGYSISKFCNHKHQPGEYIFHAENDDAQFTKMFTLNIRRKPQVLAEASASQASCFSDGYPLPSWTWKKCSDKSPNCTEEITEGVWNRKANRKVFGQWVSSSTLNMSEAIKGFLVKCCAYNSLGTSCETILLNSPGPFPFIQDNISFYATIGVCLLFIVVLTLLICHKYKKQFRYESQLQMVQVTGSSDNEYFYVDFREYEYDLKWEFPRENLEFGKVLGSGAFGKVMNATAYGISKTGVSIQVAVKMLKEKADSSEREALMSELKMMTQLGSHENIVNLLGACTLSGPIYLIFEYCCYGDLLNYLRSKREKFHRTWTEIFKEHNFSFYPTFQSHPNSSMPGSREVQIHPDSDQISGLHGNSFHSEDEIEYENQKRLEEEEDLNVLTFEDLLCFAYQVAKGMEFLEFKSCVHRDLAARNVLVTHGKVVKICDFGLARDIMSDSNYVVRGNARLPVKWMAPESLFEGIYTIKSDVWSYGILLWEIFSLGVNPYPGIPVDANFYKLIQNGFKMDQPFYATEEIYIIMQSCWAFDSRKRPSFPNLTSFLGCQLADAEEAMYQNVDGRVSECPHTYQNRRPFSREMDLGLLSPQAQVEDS

MV4-11 [2] = assay: Cytotoxicity against human MV4-11 cells at 1 uM after 72 hrs by MTT assay; format: cell-based; details: mv4-11, 72 h
MV4-11 [3] = assay: Induction of apoptosis in human MV4-11 cells assessed as early apoptotic cells at 1 uM after 24 hrs by Annexin V-FITC/propidium iodide staining based flow cytometric analysis (reference value: 3.39%); format: functional
MV4-11 [4] = assay: Induction of apoptosis in human MV4-11 cells assessed as late apoptotic cells at 1 uM after 24 hrs by Annexin V-FITC/propidium iodide staining based flow cytometric analysis (reference value: 1.42%); format: functional
MV4-11 [5] = assay: Induction of apoptosis in human MV4-11 cells assessed as necrotic cells at 1 uM after 24 hrs by Annexin V-FITC/propidium iodide staining based flow cytometric analysis (reference value: 0%); format: functional
MV4-11 [6] = assay: Induction of apoptosis in human MV4-11 cells assessed as viable cells at 1 uM after 24 hrs by Annexin V-FITC/propidium iodide staining based flow cytometric analysis (reference value: 95.19%); format: functional; details: MV4-11, 24 h, read-out: Activity
[7] = Half life in human liver microsomes at 1 uM after 5 to 60 mins in presence of NADPH by LC-MS/MS analysis; format: ADME, Microsome
[8] = Half life in rat liver microsomes at 1 uM after 5 to 60 mins in presence of NADPH by LC-MS/MS analysis; format: ADME, Microsome
[9] = Intrinsic clearance in human liver microsomes assessed per mg protein at 1 uM after 5 to 60 mins in presence of NADPH by LC-MS/MS analysis; format: ADME, Microsome; details: read-out: CLH
[10] = Intrinsic clearance in rat liver microsomes assessed per mg protein at 1 uM after 5 to 60 mins in presence of NADPH by LC-MS/MS analysis; format: ADME, Microsome; details: read-out: CLH

Compound `CN1CCN(c2ccc(Nc3[nH]nc4c3-c3ccccc3CC4)cc2)CC1` has an IC50 [1] of 610 nM.

Compound `COc1ccc(Oc2ccc3c(NC(=O)c4ccc(NC5CCN(C)CC5)cc4)n[nH]c3c2)cc1` has an IC50 [1] of 222 nM.

In the case of `CN1CCC(Nc2ccc(C(=O)Nc3n[nH]c4cc(Oc5ccccc5)ccc34)cc2)CC1`, the IC50 [1] is reported as 136 nM.

Work on `CN1CCN(c2ccc(Nc3[nH]nc4c3-c3ccccc3CO4)cc2)CC1` yielded an IC50 [1] of 842 nM.

In the case of `CNC(=O)c1cc(Oc2ccc(NC(=O)Nc3ccc(Cl)c(C(F)(F)F)c3)cc2)ccn1` [SORAFENIB], the Activity (MV4-11 [2]) is reported as “Non-Toxic”, the Activity (MV4-11 [3]) is reported as 32.25% and the Activity (MV4-11 [4]) is reported as 27.58%. It also gave an Activity (MV4-11 [5]) of 4.2% and a viability at 1 µM (MV4-11 [6]) of 36%.

Work on `Cc1ncc2n1-c1ccc(Cl)cc1C(c1ccccc1F)=NC2` [MIDAZOLAM] yielded a half-life at 1 µM [7] of 2.2 min, a half-life at 1 µM [8] of 11.2 min and a microsomal CLint at 1 µM [9] of 625 µL/min/mg. It also gave a microsomal CLint at 1 µM [10] of 124 µL/min/mg.
